# Measurements published in patent publication US20190187129A1, “CANCER MODELING PLATFORMS AND METHODS OF USING THE SAME” (Wake Forest University Health Sciences, priority 2016, published 2019).
# Legend:
# Type in all cases: cell-based
# [1] = test system: Ring constructs made with a Caco2 outer ring and a SW480 core; assay: Concentric ring construct drug treatment (MTS assay, LIVE/DEAD staining)
# Description: The first objective of this project was to evaluate a 3D model of a colorectal cancer tumor surrounded by normal host tissue. The engineered concentric ring construct consists of a colorectal tumor core and a colon epithelial outer ring, to model a tumor in a reductionist, yet physiologically relevant environment. This construct was used to measure the growth of the tumor core, any observed invasion of the tumor cells into the epithelial layer, and the efficacy of drugs. The constructs were created with cells suspended in a hyaluronic acid and gelatin-based hydrogel. The tumor cores were made using one of four colorectal cancer cells types, thereby providing models of 4 levels of malignancy. The HCT116 cells were the most malignant, followed by the HT29, SW480, and Caco2 cells. Caco2 cells were also employed in the outer ring, as they best resemble healthy epithelial cells. The tumor core was fluorescently labeled and fluorescent imaging was used to monitor the tumor core over the course of 7-14 days. […] Ring constructs made with a Caco2 outer ring and a SW480 core were also treated with Regorafenib, a chemotherapy agent.
# CACO2 cells = assay: cells; settings: Homo sapiens, Caco-2, read-out: relative cellular viability (MTS, relative to control)
# Protocol: (§1) Cancer cells seeded directly into wells were given 4-5 hours to reattach to the bottom of the wells. After that time, the anticancer drug solutions were administered in place of the media (FIG. 6, panel A) and an MTS assay was carried out 2 days later to determine cell viability. […] At 100 μM concentrations of Regorafenib and Sorafenib, and 100 mM concentrations of 5-FU, cellular viability remained below 20% that of the control for all four of the colorectal cancer cell lines utilized. However, screening with Dabrafenib and Trametinib produced diverging results from the other three anticancer drugs at higher concentrations. […] When treated with 1 mM concentrations of 5-FU, relative cellular viability was approximately 39% for SW480 cells and remained between 10%-22% for the HCT116, HT29, and CACO2 cells. These values were considerably lower than the relative cellular viability values for the lowest concentrations of the other anticancer drugs.
# (§2) Cell Seeding: The original 15 mL centrifuge tubes containing the 10 mL of DMEM-10, cells, and trypsin were placed into a centrifuge. The centrifugation setting was 1500 RPM and at maximal acceleration for 5 minutes. After that time, the media and trypsin mixture was aspirated from the tubes, leaving the cell pellets still intact. 5 mL of DMEM-10 was then pipetted into each of the tubes, resuspending the cells in the process. Calculated volumes of the 5 mL cell-media solution were determined to ensure that 25,000 cells of each of the four colorectal cancer cell lines were seeded directly into each of the wells of a polystyrene clear-bottom 96-well plate. 100 μL of DMEM-10 media was then pipetted directly into the wells. The 96-well plates were incubated at 37° C. and 5% CO2 for 5 hours to allow the cells to reattach themselves to the bottom of the wells until media was aspirated and anticancer drug solutions were added.
# (§3) Addition of Anticancer Drugs for Screening: The anticolorectal cancer drugs used in this screening included 5-FU, Regorafenib, Sorafenib, Trametinib, and Dabrafenib (Sigma-Aldrich, Missouri, USA)). High concentration drug stock solutions were created with DMSO. Lower concentration drug solutions were created by mixing the anticancer drug stocks with DMEM-10 media. […] drug solutions were generated for 5-FU; 1 μM, 10 μM, and 100 μM drug solutions were generated for Regorafenib, Sorafenib, and Dabrafenib; and 1 nM, 10 nM, and 100 nM drug solutions were generated for Trametinib. Media was carefully aspirated from the wells and 200 μL of the various drug-media solutions were placed into the wells containing cells. Three duplicates were generated for each anticancer drug concentration with each of the different cell types to calculate averages and run statistics on the data generated. Well plates were then incubated at 37° C. and 5% CO2 for […].
# (§4) Cell viability assay: Cell viability was determined 48 hours after exposure to the anticancer drug solutions. The viability of the cells was examined by the CellTiter 96® AQueous One Solution Cell Proliferation (MTS) assay (Promega, Wisconsin, USA). The anticancer drug-media solutions were aspirated from the wells and 200 μL of the MTS reagent was carefully pipetted into the wells. The incubation time for the cells with the MTS reagent was approximately 45 minutes. The cell viability assay was performed on another 96-well plate and the absorbance was quantified by the EnVision Multilabel Plate Reader (PerkinElmer, California, USA).
# HCT116 cells = assay: cells; settings: Homo sapiens, HCT-116, read-out: relative cellular viability (MTS, relative to control)
# Protocol: as §1, §2, §3, §4
# HT29 cells = assay: cells; settings: Homo sapiens, HT-29, read-out: relative cellular viability (MTS, relative to control)
# Protocol: as §1, §2, §3, §4
smiles,measurement,setting,value
CNC(=O)c1cc(Oc2ccc(NC(=O)Nc3ccc(Cl)c(C(F)(F)F)c3)c(F)c2)ccn1 [Regorafenib],cells targeted within the ring construct (LIVE/DEAD staining),[1]; inner ring versus outer Caco2 cells,selectively targeted the inner ring of the construct
same,amount of viable cells after treatment (MTS assay),"[1]; ring construct, Caco2 outer ring, SW480 core",decrease in the amount of viable cells
same,viability at 100 µM,CACO2 cells,< 20%
same,viability at 100 µM,HCT116 cells,< 20%
same,viability at 100 µM,HT29 cells,< 20%
